Here are results for 26 compounds from US9724544B2, “Vitamin D promoting sunscreen” (priority 2009, dated 2017).

The conditions of series [1]: cited from earlier work; for absorption in the vitamin D producing range: approximately 295 to 315 nm.
Series [2] concerns primary human keratinocytes. Conditions: De Haes et al. 2005; cited from earlier work.
Series [3] can be described thus: UV absorption spectra (absorbance range, maxima, critical wavelength) of UV filters and other ingredients. In kind it is physicochemical. Conditions: over time under the sun.

Where two headings read alike, the source gives them in different places.

As for “4-Bis(polyethoxy)para-aminobenzoic acid polyethoxyethyl ester [PEG-25 PABA]”, in series [1], the “absorption in the vitamin D producing range” value (“absorption” for short) was “minimal absorption”.
For the compound `C=C1/C(=C\C=C2/CCC[C@]3(C)[C@@H]([C@H](C)CCCC(C)(C)O)CC[C@@H]23)C[C@@H](O)C[C@@H]1O` [1,25(OH)2D3, 1,25-dihydroxyvitamin D3], the “protection against UVB-induced DNA damage” value in series [2] is “protects”.
Turning to `O=C(c1ccc(O)cc1O)c1ccc(O)cc1O` [2,2^1,4,4′-Tetrahydroxybenzophenone], in series [1], the “absorption” value is given as “high percentage”.
`COc1ccc(C(=O)c2ccc(OC)cc2O)c(O)c1` [2,2′-Dihydroxy-4,4′-dimethoxybenzophenone]: the “absorption” value in series [1] is “high percentage”.
Turning to `O=C(c1ccccc1)c1ccc(O)cc1O` [2,4-Dihydroxybenzophenone], in series [1], the “absorption” value is recorded as “high percentage”.
Consider `CCCCCCCCOc1ccc(C(=O)c2ccccc2)c(O)c1` [2-Hydroxy-4-(Octyloxy)Benzophenone], for which, in series [1], the “absorption” value is “high percentage”.
Regarding `Cc1ccc(C=C2C(=O)C3(C)CCC2C3(C)C)cc1` (centres unmarked) [4-Methylbenzylidene camphor, 3-(4-methylbenzyliden)camphor], the “absorption” value in series [1] is listed as “high percentage”.
Regarding `Nc1ccc(C(=O)O)cc1` [Aminobenzoic acid, 4-aminobenzoic acid], the “absorption” value in series [1] is “high percentage”. The maximum absorbance in series [1] (dissolved in alcohol) was 289 nm; in series [1] (dissolved in water) it was 278 nm.
In the case of `COc1ccc(C(=O)CC(=O)c2ccc(C(C)(C)C)cc2)cc1` [Avobenzone, 4-tert-butyl-4′-methoxy-dibenzoylmethane], the “ability to absorb radiation in the 290 to 315 nm range over time” value in series [3] is reported as “increases over time”. In addition, the “absorption” value in series [1] was “relative lack of absorption”.
Regarding `CCCCC(CC)COc1ccc(-c2nc(-c3ccc(OC)cc3)nc(-c3ccc(OCC(CC)CCCC)cc3O)n2)c(O)c1` (centres unmarked) [Bemotrizinol, bis-ethylhexyloxyphenol methoxyphenyl triazine], the “absorption” value in series [1] is on record as “high percentage”.
Turning to `O=S(=O)([O-])c1cc(S(=O)(=O)O)cc2[nH]c(-c3ccc(-c4nc5c(S(=O)(=O)[O-])cc(S(=O)(=O)O)cc5[nH]4)cc3)nc12.[Na+].[Na+]` [Bisdisulizole disodium, disodium phenyl dibenzimidazole tetrasulfonate], the “absorption” value in series [1] is “relative lack of absorption”.
Consider `CCOCCOC(=O)C=Cc1ccc(OC)cc1` [Cinoxate, 2-ethoxyethyl p-methoxycinnamate], for which the “absorption” value in series [1] is “high percentage”.
In the case of `CC(=O)C=CC=C1C2CCC(C2)C1(C)C` (centres unmarked) [Digalloyl trioleate, 5-(3,3-Dimethyl 2 norbornyliden)-3penten-2-one], the “absorption” value in series [1] was “high percentage”.
Regarding `CCCCC(CC)COC(=O)c1ccc(Nc2nc(Nc3ccc(C(=O)OCC(CC)CCCC)cc3)nc(Nc3ccc(C(=O)OCC(CC)CCCC)cc3)n2)cc1` (centres unmarked) [Ethylhexyl Triazone], the “absorption” value in series [1] is “high percentage”.
Turning to `Nc1ccc(C(=O)OCC(O)CO)cc1` (centres unmarked) [Glyceryl Aminobenzoate, glyceryl 1-(4-aminobenzoate)], in series [1], the “absorption” value was “high percentage”.
For the compound `CC1CC(OC(=O)c2ccccc2O)CC(C)(C)C1` (centres unmarked) [Homosalate, 3,3,5-trimethylcyclohexyl salicylate], in series [1], the “absorption” value was “minimal to moderate”.
Turning to `CCCCC(CC)COC(=O)c1ccc(Nc2nc(Nc3ccc(C(=O)NC(C)(C)C)cc3)nc(Nc3ccc(C(=O)OCC(CC)CCCC)cc3)n2)cc1` (centres unmarked) [Iscotrizinol, diethylhexyl butamido triazone], the “absorption” value in series [1] was “high percentage”.
Turning to `COc1ccc(C=CC(=O)OCCC(C)C)cc1` [Isoamyl p-methoxycinnamate], the “absorption” value in series [1] was “high percentage”.
For `COc1ccc(C(=O)c2ccc(C)cc2)c(O)c1` [Mexenon, 2-hydroxy-4-methoxy-4′-methyl-benzophenone], the “absorption” value in series [1] is “minimal to moderate”.
For `CCCCC(CC)COC(=O)c1ccccc1O` (centres unmarked) [Octisalate, 2-ethylhexyl salicylate], the “absorption” value in series [1] was “minimal to moderate”.
Consider `CCCCC(CC)COC(=O)C(C#N)=C(c1ccccc1)c1ccccc1` (stereo not drawn) [Octocrylene, 2-ethylhexyl alpha-cyano-beta-phenylcinnamate], for which, in series [1], the “absorption” value was “minimal to moderate”.
Regarding `COc1ccc(C(=O)c2ccccc2)c(O)c1` [Oxybenzone, 2-hydroxy-4-methoxybenzophenone], in series [1], the “absorption” value is given as “minimal to moderate”.
`CCCCC(CC)COC(=O)c1ccc(N(C)C)cc1` (centres unmarked) [Padimate-0, 2-ethylhexyl 4-dimethylaminobenzoate]: the “absorption” value in series [1] is “high percentage”.
In the case of `CCCCCOC(=O)c1ccc(N(C)C)cc1` [Padimate-A, amyl p-dimethylaminobenzoate], the “absorption” value in series [1] is recorded as “high percentage”.
For `COc1cc(O)c(C(=O)c2ccccc2)cc1S(=O)(=O)O` [Sulisobenzone, 2-hydroxy-4-methoxybenzophenone-5-sulfonic acid], the “absorption” value in series [1] is on record as “minimal to somewhat moderate”.
`CCCCCCOC(=O)c1ccccc1C(=O)c1ccc(N(CC)CC)cc1O` [Uvinul A Plus, diethylamino hydroxybenzoyl hexyl benzoate]: the “absorption” value in series [1] is on record as “relative lack of absorption”.
